Measurements reported in patent publication US8765769B2, “Ring-fused 4-aminopyrimidines and use thereof as stimulators of soluable guanylate cyclases” (Bayer Intellectual Property GmbH, priority 2010, dated 2014).

Tests used:
[1] = tested on: recombinant guanylate cyclase reporter cell line; assay: Effect on a recombinant guanylate cyclase reporter cell line; format: cell-based; details: recombinant guanylate cyclase reporter cell line (Wunder et al. 2005)
Description: B-2. Effect on a Recombinant Guanylate Cyclase Reporter Cell Line
The cellular action of the inventive compounds is determined on a recombinant guanylate cyclase reporter cell line as described in F. Wunder et al., Anal. Biochem. 339, 104-112 (2005).

[2] = tested on: rabbit aorta rings; assay: Vasorelaxant action in vitro (phenylephrine-contracted rabbit aorta rings); details: Oryctolagus cuniculus; concentration reducing the phenylephrine-induced contraction of rabbit aorta rings by 50%; DMSO 0.1%
Description: B-1. Vasorelaxant Action In Vitro
Rabbits are stunned by a blow to the neck and exsanguinated. The aorta is removed, freed from adhering tissue and divided into rings of width 1.5 mm, which are placed individually under prestress into 5 ml organ baths with carbogen-sparged Krebs-Henseleit solution at 37° C. having the following composition (each mM): sodium chloride 119; potassium chloride: 4.8; calcium chloride dihydrate: 1; magnesium sulfate heptahydrate: 1.4; potassium dihydrogenphosphate: 1.2; sodium hydrogencarbonate: 25; glucose: 10. The contractile force is determined with Statham UC2 cells, amplified and digitalized using A/D transducers (DAS-1802 HC, Keithley Instruments Munich), and recorded in parallel on linear recorders. To obtain a contraction, phenylephrine is added to the bath cumulatively in increasing concentration. After several control cycles, the substance to be studied is added in increasing dosage each time in every further run, and the magnitude of the contraction is compared with the magnitude of the contraction attained in the last preceding run. This is used to calculate the concentration needed to reduce the magnitude of the control value by 50% (IC50 value). The standard administration volume is […]; the DMSO content in the bath solution corresponds to 0.1%.

| IC50 [2] | SMILES | MEC (minimal effective concentration) [1] |
| --- | --- | --- |
| 24 nM | Nc1nc(-c2nn(Cc3ccccc3F)c3ncccc23)nc2c1C1(CCOC1)C(=O)N2 (stereo not drawn) [Example 4, 4′-amino-2′-[1-(2-fluorobenzyl)-1H-pyrazolo[3,4-b]pyridin-3-yl]-4,5-dihydrospiro[furan-3,5′-pyrrolo[2,3-d]pyrimidine]-6′(7′H)-one] | 0.003 µM |
| 9.3 nM | CC1(C)C(=O)Nc2nc(-c3nn(Cc4ccccc4F)c4ncc(F)cc34)nc(N)c21 [Example 3, 4-amino-2-[5-fluoro-1-(2-fluorobenzyl)-1H-pyrazolo[3,4-b]pyridin-3-yl]-5,5-dimethyl-5,7-dihydro-6H-pyrrolo[2,3-d]pyrimidin-6-one] | 0.001 µM |
| 48 nM | CC1(C)C(=O)Nc2nc(-c3nn(Cc4ccccc4F)c4ncccc34)nc(N)c21 [Example 2, 4-amino-2-[1-(2-fluorobenzyl)-1H-pyrazolo[3,4-b]pyridin-3-yl]-5,5-dimethyl-5,7-dihydro-6H-pyrrolo[2,3-d]pyrimidin-6-one] | 0.001 µM |
